{
  "source": "patent US6693216B2",
  "about": "“Calcium double salts” (Nutrinova Nutrition Specialties & Food Ingredients GmbH, priority 2000, dated 2004)",
  "conditions": "sealed",
  "text": "Salts prepared as in example 1 were dried, stored under the specified conditions without the addition of other substances and checked at regular intervals visually for discoloration: […]",
  "note": "Like-named read-outs stand apart in the source and are kept apart here.",
  "data": [
    {"molecule": "CCC(=O)[O-].O=C([O-])c1ccccc1.[Ca+2]", "values": [
      {"measurement": "Time after yellow-brown discoloration of a 1% strength aqueous solution", "setting": "dark at 7° C.", "result": 12, "unit": "months"},
      {"measurement": "Time after yellow-brown discoloration of the powder", "setting": "dark at 7° C.", "result": 12, "unit": "months"},
      {"measurement": "Time after yellow-brown discoloration of a 1% strength aqueous solution", "setting": "dark at 25° C.", "result": 8, "unit": "months"},
      {"measurement": "Time after yellow-brown discoloration of the powder", "setting": "dark at 25° C.", "result": 7, "unit": "months"},
      {"measurement": "Time after yellow-brown discoloration of a 1% strength aqueous solution", "setting": "under sunlight at 7° C.", "result": 12, "unit": "months"},
      {"measurement": "Time after yellow-brown discoloration of the powder", "setting": "under sunlight at 7° C.", "result": 12, "unit": "months"},
      {"measurement": "Time after yellow-brown discoloration of a 1% strength aqueous solution", "setting": "under sunlight at 25° C.", "result": "7-8 months"},
      {"measurement": "Time after yellow-brown discoloration of the powder", "setting": "under sunlight at 25° C.", "result": 8, "unit": "months"}
    ]}
  ]
}
